Experimental data from paper PMC3585964, “Tissue Inhibitor of Metalloproteinases-3 Peptides Inhibit Angiogenesis and Choroidal Neovascularization in Mice” (PLoS ONE, 2013).

Legend:
[1] = test system: ERK1 (p44) and ERK2 (p42) in PAE/KDR cells; assay: VEGF-stimulated ERK1/2 (MAP kinase) phosphorylation (western blot); format: cell-based, Porcine; conditions: 20 µM peptide
Procedure: Porcine Aortic Endothelial cells expressing VEGFR-2 (PAEKDR) were cultured in Ham’s F-12/DMEM medium supplemented with 10% fetal bovine serum (FBS) (Hyclone), 50 units/ml penicillin and 50 µg/ml streptomycin as described previously. Recombinant human VEGF was a kind gift from Genentech, CA. Antibodies: Anti-Phosphotyrosine clone 4G10 (Upstate Biotechnology/Millipore, Billerica, MA), monoclonal anti-Flk-1 (A-3) (Santa Cruz Biotechnology, Santacruz, CA), MAPK and phospho-specific MAPK antibodies (Calbiochem-Novabiochem Corporation/EMD chemicals, Gibbstown, NJ).
Immunoprecipitates of cell lysates with the indicated antibodies were subjected to SDS-PAGE and western blot analysis. Proteins were detected with either a HRP-conjugated anti-rabbit or anti-mouse IgG antibody (Amersham Pharmacia Biotech., Piscataway, NJ) followed by ECL. […]
Figure 3 Effects of TIMP-3 peptides on VEGF signaling in endothelial cells. […] Cell lysates were separated by SDS-PAGE (10%) and analyzed by immunoprecipitation with an anti-KDR anti-body followed by immunoblotting with an anti-phosphotyrosine antibody, 4G10 (top panel). KDR protein was analyzed by immunoprecipitation and immunoblotting of cell lysates using anti-KDR antibody (bottom panel). (b) Densitometric quantitation of 210-kDa bands for phospho- or total mature form of KDR. […]

[2] = test system: laser-induced CNV in C57BL/6J mice; assay: Laser-induced choroidal neovascularization (CNV); format: in vivo, mouse; conditions: intravitreal, immediately after laser burn, 14 days, C57BL6 mice
Procedure: All animal studies were approved by the Animal Care and Use Committee of the Cleveland Clinic (IACUC number ARC-08792) and conformed to the National Institutes of Health Guide for the Care and Use of Animals in Research and the ARVO statement for the use of animals in ophthalmic and vision research. All surgery was performed under ketamine/xylazine anesthesia with maximum effort devoted to minimizing suffering. Laser photocoagulation-induced rupture of Bruch’s membrane was used to generate CNV as previously described. Briefly, 4–5 week old C57BL/6J mice were anesthetized with ketamine hydrochloride (100 mg/kg body weight) and xylazine (10 mg/kg body weight) followed by1% Tropicamide (Alcon laboratories, Inc., Fort Worth, TX) for pupillary dilation. Three burns of 532-nm diode laser photocoagulation (Oculight; Iridex, Mountain View California; 50-µm spot size, 0.1 second duration, 200 mW) were delivered to each retina using a slit lamp delivery system and a hand held coverslip as a contact lens. Burns were performed in the 9, 12 and 3 o’clock positions of the posterior pole of the retina. […] Two weeks later, mice were anesthetized and perfused with fluorescein-labeled dextran (2×10^6 average molecular weight, Sigma Aldrich), choroidal flatmounts were prepared and CNV area measured. […]
Five mice were used for each dose of peptide, with three burns in each eye (n = 15–18 successful burns in each group). For quantitative analysis of lesion intensity and size, CNV images were batch processed using a custom macro generated in Image-Pro Plus 5.1 (Media Cybernetics, Silver Spring, MD). […] Mean intensity (range between 10–255 gray levels), perimeter, area, and mean diameter (pixels) were calculated for each ROI and exported to excel. […]
Figure 7 Inhibition of laser-induced CNV by TIMP-3 peptides. […] Effect of Tail peptides on CNV was evaluated by Fluorescein angiogram and Scanning Laser Ophthalmoscopy (SLO). […] CNV lesion size (area X density) was calculated for each dose of T3N-peptide (Fig. 7g), Loop6-peptide (Fig. 7h) and Tail-peptide (fig. 7i).

| Sequence | Inhibition of VEGF-stimulated MAP kinase activation [1] | Inhibition of laser-induced CNV (overall statement) [2] | Inhibition of laser-induced CNV (overall statement) ([2]; listed as N-terminal) |
| --- | --- | --- | --- |
| KIKSCYYLPCFVTS [T3-loop 5] | neither loop 5 nor N-peptide, even at higher concentrations (20 µM) inhibited VEGF-stimulated MAP kinase activation | no angio-inhibitory activity in vitro or in vivo |  |
| RGFTKMPHVQYIHTEASESL [T3-N peptide] | neither loop 5 nor N-peptide, even at higher concentrations (20 µM) inhibited VEGF-stimulated MAP kinase activation | not N-peptide inhibit laser-induced CNV | no angio-inhibitory activity in vitro or in vivo |
